The experiment concerns the target T1, glycine binding site of the NMDA receptor channel (Rattus norvegicus, UniProt P35439).
T1 construct: from tissue; host or cells: rat brain cortex and hippocampus membrane homogenate (male Wistar rats)
Description: Receptor binding studies, displacement of (3H)-MDL 105,519 from brain membrane homogenates. To be noted: for Ki: glycine binding site of the NMDA receptor channel, rat cortex/hippocampus membrane homogenate, 1 nmol/l (3H)-MDL 105,519, from IC50 by Cheng-Prussoff equation; for inhibition at 10 µM / Displacement (%, 10 μmol): percentage of bonded radioactive ligand (3H)-MDL 105,519 displaced from specific binding at 10 μM of test substance; for inhibition at 10 µM: read-out: Displacement (%, 10 μmol). The method, then: The tests to determine the affinity of the compounds of formula (I) according to the invention for the glycine binding site of the NMDA receptor channel were carried out on brain membrane homogenates (homogenate of cortex and hippocampus area from the brains of male rats, Wistar strain) (B. M. Baron, B. W. Siegel, B. L. Harrison, R. S. Gross, C. Hawes and P. Towers, Journal of Pharmacology and Experimental Therapeutics, (1996), Vol. 279, p. 62).
To that end, cortex and hippocampus from freshly removed rat brains were exposed and homogenized, while cooling with ice, in 5 mmol/l of TRIS acetate buffer, […] of saccharose pH 7.4 (10 ml/g fresh weight) using a Potter homogenizer (Braun/Melsungen; 10 piston strokes at 500 rpm) and then centrifuged for 10 minutes at 1000 g and 4° C. The first supernatant was collected and the sediment was again homogenized, while cooling with ice, with 5 mmol/l of TRIS acetate buffer, 0.32 mol/l of saccharose pH 7.4 (5 ml/g original fresh weight) using the Potter homogenizer (10 piston strokes at 500 rpm) and centrifuged for 10 minutes at 1000 g and 4° C. The resulting supernatant was combined with the supernatant from the first centrifugation and centrifuged for 20 minutes at 17,000 g and 4° C. The supernatant from this centrifugation was discarded and the membrane sediment was taken up in 5 mmol/l of TRIS acetate buffer pH 8.0 (20 ml/g original fresh weight) and homogenized with 10 piston strokes at 500 rpm.
The membrane homogenate was then incubated for one hour at 4° C. and centrifuged for 30 minutes at 50,000 g and 4° C. The supernatant was discarded and the centrifuge tube containing the membrane sediment was closed with Parafilm and frozen for 24 hours at −20° C. On the following day, the membrane sediment was thawed and taken up in 5 mmol/l of ice-cold TRIS acetate buffer, 0.1% saponin (w/v) pH 7.0 (10 ml/g original fresh weight) and homogenized with 10 piston strokes at 500 rpm and then centrifuged for 20 minutes at 50,000 g and 4° C. The resulting supernatant was discarded and the sediment was taken up in a small volume in 5 mmol/l of TRIS acetate buffer pH 7.0 (about 2 ml/g original fresh weight) and again homogenized with 10 piston strokes at 500 rpm. After determination of the protein content, the membrane homogenate was adjusted to a protein concentration of 10 mg of protein/ml with 5 mmol/l TRIS acetate buffer pH 7.0, and was frozen in aliquots until testing.
For the receptor binding test, aliquots were thawed, diluted 1:10 with 5 mmol/l of TRIS acetate buffer pH 7.0, homogenized, while cooling with ice, with 10 piston strokes at 500 rpm using the Potter homogenizer (10 piston strokes at 500 rpm) and centrifuged for 60 minutes at 55,000 g and 4° C. The supernatant was decanted off and the membrane sediment was adjusted to a protein concentration of 1 mg/ml with 50 mmol/l of ice-cold TRIS acetate buffer pH 7.0 and again homogenized with 10 piston strokes at 500 rpm and maintained in suspension in an ice-bath while stirring with a magnetic stirrer. Of that membrane homogenate, 100 μl per 1 ml batch were used in the receptor binding test (0.1 mg protein/ml in the final batch).
In the binding test, 50 mmol/l of TRIS acetate buffer pH 7.0 were used as the buffer, and 1 nmol/l of (^3H)-MDL 105,519 (B. M. Baron et al. 1996) was used as the radioactive ligand. The proportion of non-specific binding was determined in the presence of 1 mmol/l of glycine.
In further batches, the compounds according to the invention were added in series of concentrations and the displacement of the radioactive ligand from its specific binding to the glycine binding site of the NMDA receptor channel was determined. The respective triplicate batches were incubated for 120 minutes at 4° C. and then harvested by means of filtration through glass fiber filter mats (GF/B) for determination of the radioactive ligand bonded to the membrane homogenate. […]

Molecules are shown by their SMILES. Where a name gives a salt, the structure may show the parent alone.

As for `CC(=O)SCc1ccc(C(Nc2cc(Cl)cc(Cl)c2)C(=O)O)o1` (centres unmarked) [Example 110, (5-Acetylsulfanylmethyl-furan-2-yl)-(3,5-dichloro-phenylamino)-acetic acid], the affinity corresponds to a Ki of 120 nM and the inhibition at 10 µM was 104%.

On to `CSCc1ccc(C(Nc2cc(Cl)cc(Cl)c2)C(=O)O)o1` (centres unmarked) [Example 106, (3,5-Dichloro-phenylamino)-(5-methylsulfanylmethyl-furan-2-yl)-acetic acid], for which the “Displacement (%, 10 μmol)” value was determined as 65%.

In the case of `CCc1ccc(C(Nc2cc(Cl)cc(Cl)c2)C(=O)O)s1` (centres unmarked) [Example 111, (3,5-Dichloro-phenylamino)-(5-ethyl-thiophen-2-yl)-acetic acid], the inhibition at 10 µM amounted to 44%.

For the molecule `O=C(O)C(Nc1ccc(Cl)c(Cl)c1)c1ccc(CS)o1` (centres unmarked) [Example 114, (3,4-Dichloro-phenylamino)-(5-mercaptomethyl-furan-2-yl)-acetic acid], the inhibition at 10 µM came out at 45%.

Take `O=C(O)C(Nc1cc(Cl)cc(Cl)c1)c1ccc(Cl)s1` (centres unmarked) [Example 127, (5-Chlorothiophen-2-yl)-(3,5-dichlorophenylamino)-acetic acid]: affinity was put at a Ki of 2570 nM and the inhibition at 10 µM amounted to 68%.

For the molecule `O=C(O)C(Nc1cc(Cl)cc(Cl)c1)c1ccc(CSSCc2ccco2)o1` (centres unmarked) [Example 120, (3,5-Dichlorophenylamino)-[5-(furan-2-ylmethyldisulfanylmethyl)-furan-2-yl]-acetic acid], the inhibition constant (Ki) – broadly, the equilibrium dissociation constant of an inhibitor or competing ligand from its target – was 470 nM and the inhibition at 10 µM came to 103%.

Take `CSCc1ccc(C(Nc2cc(Cl)cc(Cl)c2)C(=O)O)o1.[Na]` (centres unmarked) [Example 106-Na, (3,5-Dichloro-phenylamino)-(5-methylsulfanylmethyl-furan-2-yl)-acetic acid sodium]: affinity was put at a Ki of 2980 nM and the “Displacement (%, 10 μmol)” value came out at 78%.

For `O=C([O-])C(Nc1cc(Cl)cc(Cl)c1)c1ccc(Cl)s1.[Na+]` (centres unmarked) [Example 127-Na, (3,5-Dichlorophenylamino)-(5-chlorothiophen-2-yl)-acetic acid sodium salt], the “Displacement (%, 10 μmol)” value turned out to be 72%.

For the molecule `CSCc1ccc(C(Nc2cc(Cl)cc(Cl)c2)C(=O)O)o1.Cl` (centres unmarked) [Example 106-HCl, (3,5-Dichloro-phenylamino)-(5-methylsulfanylmethyl-furan-2-yl)-acetic acid hydrochloride], the “Displacement (%, 10 μmol)” value turned out to be 91%.

With `CC(=O)OCc1ccc(C(Nc2cc(Cl)cc(Cl)c2)C(=O)O)o1` (centres unmarked) [Example 123, (5-Acetoxymethylfuran-2-yl)-(3,5-dichlorophenylamino)-acetic acid], the affinity, expressed as Ki, was 5030 nM and the inhibition at 10 µM is 60%.

Regarding `CC(C)(C)c1ccc(C(Nc2cc(Cl)cc(Cl)c2)C(=O)O)o1` (centres unmarked) [Example 119-HCl, (5-tert-Butylfuran-2-yl)-(3,5-dichlorophenylamino)-acetic acid hydrochloride], the inhibition at 10 µM is 91%.

For the molecule `O=C(O)C(Nc1cc(Cl)cc(Cl)c1)c1ccc(CO)s1` (centres unmarked) [Example 109, (3,5-Dichloro-phenylamino)-(5-hydroxymethyl-thiophen-2-yl)-acetic acid], the inhibition at 10 µM was 66%.

In the case of `COc1ccc(NC(C(=O)O)c2cccs2)cc1` (centres unmarked) [(4-methoxy-phenylamino)-thien-2-yl-acetic acid, reference compound], the “binding to the glycine binding site of the NMDA ion channel (statement in words)” value (general statement in the description, no values) was “bind selectively to the glycine binding site of the NMDA ion channel”.

For `Cc1ccc(C(Nc2cc(Cl)cc(Cl)c2)C(=O)O)s1` (centres unmarked) [Example 125-Na, (3,5-Dichlorophenylamino)-(5-methylthiophen-2-yl)-acetic acid sodium salt], the affinity, expressed as Ki, was 5030 nM and the inhibition at 10 µM came out at 63%.

On to `O=C(O)C(Nc1cc(Cl)cc(Cl)c1)c1ccc(CS)o1` (centres unmarked) [Example 107, (3,5-Dichloro-phenylamino)-(5-mercaptomethyl-furan-2-yl)-acetic acid], for which the inhibition at 10 µM stood at 101%.

Consider `Cc1csc(C(Nc2cc(Cl)cc(Cl)c2)C(=O)O)c1` (centres unmarked) [Example 126, (3,5-Dichlorophenylamino)-(4-methylthiophen-2-yl)-acetic acid], for which the affinity, expressed as Ki, was 15400 nM and the inhibition at 10 µM stood at 52%.

On to `CSSCc1ccc(C(Nc2cc(Cl)cc(Cl)c2)C(=O)O)o1` (centres unmarked) [Example 121, (3,5-Dichlorophenylamino)-(5-methyldisulfanylmethyl-furan-2-yl)-acetic acid], for which the Ki was determined as 290 nM and the inhibition at 10 µM was 106%.

For the molecule `O=C(O)C(Nc1cccc(Cl)c1)c1ccc(CS)o1` (centres unmarked) [Example 113, (3-Chloro-phenylamino)-(5-mercaptomethyl-furan-2-yl)-acetic acid], the inhibition at 10 µM is 99%.

The values are drawn from patent US6797712B2, “Substituted amino-furan-2-yl-acetic acid and amino-thien-2-yl-acetic acid derivatives and their use in the treatment of migraine and pain” (Gruenenthal GmbH, priority 2000, dated 2004).
